Test [1] addresses T1, purified human Factor XIa (Homo sapiens, UniProt P03951).
T1 construct: purified human Factor XIa; purchased Sekisui Diagnostics
Put plainly: Factor XIa Assay. In kind it is biochemical. To be noted: fluorogenic substrate Z-Gly-Pro-Arg-AFC 100 μM, 40 pM enzyme, pH 7.4, read-out: F11a IC50.

In test [2] the target is T2, purified Human plasma kallikrein (Homo sapiens, UniProt P03952).
T2 construct: yields a heavy chain (371 amino acids) and a light chain (248 amino acids); purchased Enzyme Research Laboratories
T2 sequence (P03952 391-638 limits assumed): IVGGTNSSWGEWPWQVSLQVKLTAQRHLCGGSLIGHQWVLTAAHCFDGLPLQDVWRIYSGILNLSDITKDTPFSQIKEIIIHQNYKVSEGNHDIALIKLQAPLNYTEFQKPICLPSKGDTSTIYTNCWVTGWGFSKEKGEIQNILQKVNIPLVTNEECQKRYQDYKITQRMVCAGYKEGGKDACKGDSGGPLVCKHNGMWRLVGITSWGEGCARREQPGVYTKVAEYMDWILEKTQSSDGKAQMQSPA
T2 sequence (P03952 20-390 partner limits assumed): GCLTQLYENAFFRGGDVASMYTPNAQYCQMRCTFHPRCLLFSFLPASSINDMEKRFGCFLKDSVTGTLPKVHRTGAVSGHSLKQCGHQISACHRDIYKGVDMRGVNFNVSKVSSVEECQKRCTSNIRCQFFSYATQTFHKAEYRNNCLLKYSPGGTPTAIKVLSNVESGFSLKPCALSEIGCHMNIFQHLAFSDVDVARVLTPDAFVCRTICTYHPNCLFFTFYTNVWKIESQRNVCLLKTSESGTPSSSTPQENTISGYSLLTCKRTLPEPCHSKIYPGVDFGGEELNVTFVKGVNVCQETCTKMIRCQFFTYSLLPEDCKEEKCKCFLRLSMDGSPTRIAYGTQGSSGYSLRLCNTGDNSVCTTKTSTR
Put plainly: Kallikrein Assay. In kind it is biochemical. The note with it: Plasma Kallekrein IC50; fluorogenic substrate Acetyl-K-P-R-AFC, 0.5 nM enzyme, pH 7.4; read-out: PK IC50.

From patent US9868727B2, “Factor XIa inhibitors” (Merck Sharp & Dohme Corp., priority 2014, dated 2018) come the findings set out here.

T1 sequence (P03951 388-625 limits assumed): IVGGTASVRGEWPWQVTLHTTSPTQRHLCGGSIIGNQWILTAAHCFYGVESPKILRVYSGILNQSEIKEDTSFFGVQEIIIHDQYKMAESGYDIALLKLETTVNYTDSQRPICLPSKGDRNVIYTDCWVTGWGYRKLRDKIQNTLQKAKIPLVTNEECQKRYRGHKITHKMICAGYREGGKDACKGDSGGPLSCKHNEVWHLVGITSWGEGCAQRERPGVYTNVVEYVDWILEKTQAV
T1 sequence (P03951 19-387 partner limits assumed): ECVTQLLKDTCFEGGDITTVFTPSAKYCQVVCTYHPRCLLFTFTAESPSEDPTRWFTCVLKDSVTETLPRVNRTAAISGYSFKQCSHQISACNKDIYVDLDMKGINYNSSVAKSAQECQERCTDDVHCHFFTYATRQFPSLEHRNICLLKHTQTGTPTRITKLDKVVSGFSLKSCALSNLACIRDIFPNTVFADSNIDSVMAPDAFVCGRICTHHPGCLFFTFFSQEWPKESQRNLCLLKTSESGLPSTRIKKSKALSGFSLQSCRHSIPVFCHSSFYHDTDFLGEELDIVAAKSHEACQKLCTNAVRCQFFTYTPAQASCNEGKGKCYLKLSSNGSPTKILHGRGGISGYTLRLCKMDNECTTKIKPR

In the case of `COC(=O)c1scc(-c2cnc(C(CC3CC3)c3ccc(-c4cc(Cl)ccc4-n4cnnn4)c[n+]3[O-])[nH]2)c1F` (single isomer, unassigned) [Example 61, Methyl 4-[2-(1-{5-[5-chloro-2-(1H-tetrazol-1-yl)phenyl]-1-oxidopyridin-2-yl}-2-cyclopropylethyl)-1H-imidazol-5-yl]-3-fluorothiophene-2-carboxylate], the IC50 (in general, the concentration that inhibits the measured activity by half) in test [1] was found to be 53 nM; in test [2], 343 nM.
As for `Nc1ccc(-c2c[nH]c(C(CC3CC3)c3ccc(-c4cc(Cl)ccc4-n4cnnn4)c[n+]3[O-])n2)cn1` (single isomer, unassigned) [Example 49], the IC50 in test [1] came out at 19.5 nM; in test [2], 2120 nM.
The matching figures for `O=C(O)c1ccc(-c2cnc(C(CC3CC3)c3ccc(-c4cc(Cl)ccc4-n4cnnn4)c[n+]3[O-])[nH]2)cc1` (single isomer, unassigned) [Example 56]: 11 nM and 241 nM.
